# Experiments:
# [1] = General physical properties: solubility in water; format: physicochemical
# Source text: 1210.Na. The example compound is a sodium salt of (E)-4-Carboxystyryl-4-chlorobenzylsulfone.
# [2] = Solid-state stability of ON.1210.Na at 75° C.; format: physicochemical
# Protocol: (§1) A stability indicating HPLC assay is used during the preformulation studies. Preformulation studies include determination of microscopic and macroscopic properties, partition coefficient, pKa, pH-solubility, pH-stability, solid-state characterization and solid-state stability. XRD and thermal analyses re used to characterize the solid and solid-state stability. The solid-state stability as well as the pH stability of the drug is carried out at 75° C.
# The stability of ON.1210.Na in the solid state is determined by exposing the drug at 75° C. over a prolonged time. The sample is crimped in a 10 mL injection vial and kept at the above temperature. The sample is collected after 15 days and one month and reconstituted with diluting solution and its concentration is determined by HPLC. Appearance of any additional peak in the chromatogram is also noted. A control sample is represented by ON.1210.Na not exposed to 75° C. and reconstituted to a known concentration with diluting solution.
# [3] = Stability of solid drug after autoclaving (HPLC); format: physicochemical; conditions: autoclaved in a crimped vial
# Protocol: A solid drug sample (ON1210), after autoclaving in a crimped vial, is also evaluated for any degradation using the developed HPLC method. The sample, after autoclaving, is used to make a standard solution of 400 μg/mL and injected onto HPLC.
# [4] = Saturated solubility of ON.1210.Na in different solvent systems; format: physicochemical; conditions: for solubility at 24 h: 24 hours of equilibration; for solubility at 48 h: 48 hours of equilibration
# [5] = pH-stability study under accelerated conditions; format: physicochemical
# Protocol: as §1
# [6] = Half life by route of administration and as suspension; format: in vivo
# Protocol: When, ON.1210.Na, for example, is administered as a suspension described herein the half life of the drug is on the order of 30-40 hours depending on the specific formulation and its viscosity. This dramatic increase in half-life translates to prolonged exposure to drug over a period of 72 hours and beyond. This increase is possible because of an apparent low dissolution rate of drug from the site of administration.
# [7] = Octanol:water partition coefficient; format: physicochemical
# Protocol: as §1
# [8] = pH-solubility study (equilibrium solubility, pKa); format: physicochemical; conditions: for solubility thermodynamic: aqueous solution (buffer not named), thermodynamic from solid
# Protocol: as §1
structure (smiles),measurement,setting,value
"O=C([O-])c1ccc(/C=C/S(=O)(=O)Cc2ccc(Cl)cc2)cc1.[Na+] [ON.1210.Na, (E)-4-Carboxystyryl-4-chlorobenzylsulfone, Sodium Salt]",solubility,[1],8 to 10 mg/mL
same,accelerated solid-state stability of bulk drug substance,[2],no evidence of degradation
same,stability of bulk solid drug,[3],stable under the autoclaving conditions
same,solubility,"[4]; 0.25% Tween 80 in phosphate buffer, pH 8.45, aqueous with cosolvent or surfactant or cyclodextrin",9.5 mg/mL
same,solubility,"[4]; 0.25% tween 80 in water, pH 8.87, aqueous with cosolvent or surfactant or cyclodextrin",10.5 mg/mL
same,solubility,"[4]; 0.5% Tween 80 in phosphate buffer, pH 8.41, aqueous with cosolvent or surfactant or cyclodextrin",9.8 mg/mL
same,solubility,"[4]; 0.5% tween 80 in water, pH 8.74, aqueous with cosolvent or surfactant or cyclodextrin",10.3 mg/mL
same,solubility,"[4]; 1% (w/v) Povidone K 90 in water, pH 8.69, aqueous with cosolvent or surfactant or cyclodextrin",209 mg/mL
same,solubility,"[4]; 1% PVP C 15, pH 8.86, aqueous with cosolvent or surfactant or cyclodextrin, thermodynamic from solid",26.9 mg/mL
same,solubility,"[4]; 1% PVP C 30, pH 8.02, aqueous with cosolvent or surfactant or cyclodextrin, thermodynamic from solid",25.1 mg/mL
same,solubility,"[4]; 1% Tween 80 in phosphate buffer, pH 8.45, aqueous with cosolvent or surfactant or cyclodextrin",8.9 mg/mL
same,solubility,"[4]; 1% tween 80 in water, pH 8.82, aqueous with cosolvent or surfactant or cyclodextrin",10.1 mg/mL
same,solubility,"[4]; 2% PVP C 15, pH 8.69, aqueous with cosolvent or surfactant or cyclodextrin, thermodynamic from solid",26.9 mg/mL
same,solubility,"[4]; 2% Tween 80 in phosphate buffer, pH 8.39, aqueous with cosolvent or surfactant or cyclodextrin",9.7 mg/mL
same,solubility,"[4]; 2% tween 80 in water, pH 8.78, aqueous with cosolvent or surfactant or cyclodextrin",9 mg/mL
same,solubility,"[4]; 5% (w/v) Povidone K 90 in Water, pH 8.35, aqueous with cosolvent or surfactant or cyclodextrin",152 mg/mL
same,solubility,"[4]; 10% PEG400:water, pH 8.24, aqueous with cosolvent or surfactant or cyclodextrin, thermodynamic from solid",36 mg/mL
same,solubility,"[4]; 20% HPCD:20% PEG 400:60% water, pH 8.2, aqueous with cosolvent or surfactant or cyclodextrin",53.6 mg/mL
same,solubility,"[4]; 25% PEG400:water, pH 8.01, aqueous with cosolvent or surfactant or cyclodextrin, thermodynamic from solid",39 mg/mL
same,solubility,"[4]; 40% HPCD, pH 7.86, aqueous with cosolvent or surfactant or cyclodextrin",109 mg/mL
same,solubility,"[4]; 50% PEG400:Buffer (0.01M), pH 8.2, aqueous with cosolvent or surfactant or cyclodextrin",20.8 mg/mL
same,solubility,"[4]; 50% PEG400:Buffer (0.07M), pH 8.2, aqueous with cosolvent or surfactant or cyclodextrin",23.4 mg/mL
same,solubility,"[4]; 50% PEG400:water, pH 7.53, aqueous with cosolvent or surfactant or cyclodextrin",40 mg/mL
same,solubility,"[4]; 50:50 PEG400:ethanol, pH 8.46, organic solvent or mixture",37 mg/mL
same,solubility,"[4]; 100% ethanol, pH 7.94, organic solvent or mixture",0.9 mg/mL
same,solubility,"[4]; DMA:WATER:Ethanol (1:1:1), aqueous with cosolvent or surfactant or cyclodextrin",46.4 mg/mL
same,solubility,"[4]; NN-Dimethyl Acetamide:Water:PEG 400 (1:2:2), pH 7.9, aqueous with cosolvent or surfactant or cyclodextrin",66.2 mg/mL
same,solubility,"[4]; PEG300:ETH (70:30), pH 8.99, organic solvent or mixture",48.3 mg/mL
same,solubility,"[4]; PEG 300:water (50:50), pH 4.5, aqueous with cosolvent or surfactant or cyclodextrin",30.6 mg/mL
same,solubility,"[4]; PEG400:Benzyl alcohol (50:50), pH 8.19, organic solvent or mixture",51.6 mg/mL
same,solubility,"[4]; PEG400:Ethanol 70:30, organic solvent or mixture",55.5 mg/mL
same,solubility,"[4]; Propylene Glycol, organic solvent or mixture",44 mg/mL
same,solubility,"[4]; Propylene glycol:water (50:50), pH 8.53, aqueous with cosolvent or surfactant or cyclodextrin",41.6 mg/mL
same,solubility at 24 h,"[4]; aqueous with cosolvent or surfactant or cyclodextrin, thermodynamic from solid, 10% cyclodextran",46 mg/mL
same,solubility at 24 h,"[4]; aqueous with cosolvent or surfactant or cyclodextrin, thermodynamic from solid, 20% cyclodextran",62 mg/mL
same,solubility,"[4]; pH 8.21, organic solvent or mixture, PEG300 (IP10 g/kg)",52 mg/mL
same,solubility at 24 h,"[4]; pH 8.32, aqueous with cosolvent or surfactant or cyclodextrin, thermodynamic from solid, 5% cyclodextran",39 mg/mL
same,solubility,"[4]; pH 8.34, organic solvent or mixture, 100% PEG 400 (12 g/kg)",26 mg/mL
same,solubility at 48 h,"[4]; pH 8.35, aqueous with cosolvent or surfactant or cyclodextrin, thermodynamic from solid, 20% cyclodextran",58 mg/mL
same,solubility at 48 h,"[4]; pH 8.41, aqueous with cosolvent or surfactant or cyclodextrin, thermodynamic from solid, 10% cyclodextran",41 mg/mL
same,solubility at 48 h,"[4]; pH 8.52, aqueous with cosolvent or surfactant or cyclodextrin, thermodynamic from solid, 5% cyclodextran",32 mg/mL
same,solubility,"[4]; water, pH 8.4, water",11.8 mg/mL
same,pH-stability profile,"[5]; 75° C., Sodium Salt",better stability at neutral and biological pH but degradation is rapid under acidic condition
same,stability in aqueous environment,[5]; biological pH,quite stable in an aqueous environment at biological pH
same,degradation rate order,"[5]; pH-stability study, Sodium Salt",pseudo-first-order rate
same,half-life,"[6]; in vivo, administered as a suspension",30 to 40 h
same,half life,[6]; intramuscular in contrast to intravenous,increases significantly
same,half life,"[6]; subcutaneous administration, compared with intramuscular",increases even further
same,octanol:water partition coefficient,[7],1.28-2.87
same,solubility thermodynamic,"[8]; aqueous buffer, pH 4.0",0.000154 mg/mL
same,solubility thermodynamic,"[8]; aqueous buffer, pH 5.0",0.0379 mg/mL
same,solubility thermodynamic,"[8]; aqueous buffer, pH 6.0",0.715 mg/mL
same,solubility thermodynamic,"[8]; aqueous buffer, pH 8.0",16.8 mg/mL
same,solubility thermodynamic,"[8]; aqueous buffer, pH 9.0",23.3 mg/mL
same,solubility thermodynamic,"[8]; pH 7.4, aqueous buffer",11.1 mg/mL
same,pKa,[8]; calculated from pH-solubility studies,2.85 ± 0.6
